Key:
Type in all cases: in vivo
Settings in all cases: wettable powder applied 3 days after transplanting, judged after 25 days
[1] = tested on: transplanted paddy-field rice; assay: Test Example 1: crop injury against transplanted paddy-field rice
How it was run: (§1)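 Scores are growth inhibition ratings from 0 (0–10%) to 5 (91–100%), judged 25 days after a water-diluted wettable powder was applied to flooded pots. Treatment followed transplanting of 2.2-leaf rice by 3 days; weeds were seeded at the soil surface or planted as germinated tubers.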

[2] = tested on: annual broad-leaved weeds (Lindernia spp., Rotala indica); assay: Test Example 1: herbicidal effects, paddy-field pot test
How it was run: as §1

Cyperus serotinus = assay: as above
How it was run: as §1

Scirpus joncoides = assay: as above
How it was run: as §1

[3] = tested on: barnyardgrass (Echinochloa oryzicola Vasing.); assay: as above
How it was run: as §1

Row | SMILES | Crop injury against transplanted rice ([1]; chemical dosage 20 g/a) | Herbicidal effects Broad leaf ([2]; chemical dosage 20 g/a) | Herbicidal effects Cyperus serotinus (Cyperus serotinus; chemical dosage 20 g/a) | Herbicidal effects Scirpus joncoides (Scirpus joncoides; chemical dosage 20 g/a) | Herbicidal effects Barnyard grass ([3]; chemical dosage 20 g/a) | Crop injury against transplanted rice ([1]; chemical dosage 10 g/a) | Herbicidal effects Broad leaf ([2]; chemical dosage 10 g/a) | Herbicidal effects Cyperus serotinus (Cyperus serotinus; chemical dosage 10 g/a) | Herbicidal effects Scirpus joncoides (Scirpus joncoides; chemical dosage 10 g/a) | Herbicidal effects Barnyard grass ([3]; chemical dosage 10 g/a) | Crop injury against transplanted rice ([1]; chemical dosage 5 g/a) | Herbicidal effects Broad leaf ([2]; chemical dosage 5 g/a) | Herbicidal effects Cyperus serotinus (Cyperus serotinus; chemical dosage 5 g/a) | Herbicidal effects Scirpus joncoides (Scirpus joncoides; chemical dosage 5 g/a) | Herbicidal effects Barnyard grass ([3]; chemical dosage 5 g/a)
1 | CC1COc2cccc(Oc3nnc(Cl)cc3O)c21 (stereo not drawn) [Example 182] | 0 (Growth inhibition rate; 0 to 10%) | 5 (Growth inhibition rate; 91 to 100%) | 5 (Growth inhibition rate; 91 to 100%) | 4 (Growth inhibition rate; 71 to 90%) | 2 (Growth inhibition rate; 31 to 50%) |  |  |  |  |  |  |  |  |  | 
2 | Oc1cc(Cl)nnc1Oc1cccc2occc12 [Example 183] | 0 (Growth inhibition rate; 0 to 10%) | 5 (Growth inhibition rate; 91 to 100%) | 5 (Growth inhibition rate; 91 to 100%) | 5 (Growth inhibition rate; 91 to 100%) | 2 (Growth inhibition rate; 31 to 50%) | 0 (Growth inhibition rate; 0 to 10%) | 5 (Growth inhibition rate; 91 to 100%) | 5 (Growth inhibition rate; 91 to 100%) | 5 (Growth inhibition rate; 91 to 100%) | 1 (Growth inhibition rate; 11 to 30%) |  |  |  |  | 
3 | Cc1coc2cccc(Oc3nnc(Cl)cc3O)c12 [Example 184] | 0 (Growth inhibition rate; 0 to 10%) | 5 (Growth inhibition rate; 91 to 100%) | 5 (Growth inhibition rate; 91 to 100%) | 4 (Growth inhibition rate; 71 to 90%) | 0 (Growth inhibition rate; 0 to 10%) |  |  |  |  |  |  |  |  |  | 
4 | Oc1cc(Cl)nnc1Oc1cccc2sccc12 [Example 185] |  |  |  |  |  |  |  |  |  |  | 0 (Growth inhibition rate; 0 to 10%) | 3 (Growth inhibition rate; 51 to 70%) | 3 (Growth inhibition rate; 51 to 70%) | 2 (Growth inhibition rate; 31 to 50%) | 1 (Growth inhibition rate; 11 to 30%)
5 | Oc1cc(Cl)nnc1Oc1cccc2c1OCC2 [Example 189] |  |  |  |  |  | 3 (Growth inhibition rate; 51 to 70%) | 5 (Growth inhibition rate; 91 to 100%) | 5 (Growth inhibition rate; 91 to 100%) | 5 (Growth inhibition rate; 91 to 100%) | 3 (Growth inhibition rate; 51 to 70%) | 0 (Growth inhibition rate; 0 to 10%) | 5 (Growth inhibition rate; 91 to 100%) | 5 (Growth inhibition rate; 91 to 100%) | 4 (Growth inhibition rate; 71 to 90%) | 2 (Growth inhibition rate; 31 to 50%)
6 | Oc1cc(Cl)nnc1Oc1cccc2c1OCO2 [Example 192] | 1 (Growth inhibition rate; 11 to 30%) | 3 (Growth inhibition rate; 51 to 70%) | 5 (Growth inhibition rate; 91 to 100%) | 5 (Growth inhibition rate; 91 to 100%) | 5 (Growth inhibition rate; 91 to 100%) | 0 (Growth inhibition rate; 0 to 10%) | 2 (Growth inhibition rate; 31 to 50%) | 5 (Growth inhibition rate; 91 to 100%) | 5 (Growth inhibition rate; 91 to 100%) | 2 (Growth inhibition rate; 31 to 50%) |  |  |  |  | 
